Experimental data as given in patent US20250084095A1, “Aminopyrimidine Derivatives as Cyclin-Dependent Kinase Inhibitors” (Accutar Biotechnology Inc., priority 2023, published 2025).

Tests used:
CDK1-CYCLIN B = CDK1-CYCLIN B (Homo sapiens (Human), UniProt P06493); experiment: CDK protein kinase inhibition by the ADP-Glo Assay, CDK1-CYCLIN B; assay type: biochemical; conditions: 1000 μM ATP
Method: (§1) This ADP-Glo assay measures ADP formed from a kinase reaction and indirectly quantifies the phosphorylation of peptide substrates by the CDK/cyclin protein complexes. The typical assays were carried out in Nanosyn by combining kinase/cyclin complexes, substrates, compounds, and cofactors (ATP and Mg2+) in a well of a 384-well microtiter plate (Coming 3824) and incubating at 22° C. (Table 4). At the end of the incubation, the reaction is quenched, and conversion is detected by luminescence using the Promega ADP-Glo™ Kinase Assay kit (catalog #V9102). Briefly, 5 μL of 1× enzyme and substrate buffer (or control), 50 nL of 100× compound, and 0.5 μL of 10 mM ATP were sequentially added to a well of a 384-well plate.
(§2) The Final assay buffer mixture contains: 100 mM HEPES, pH 7.5, 0.1% BSA, 0.01% Triton X-100, 1 mM DTT, 5 mM MgCl2, 10 μM Sodium Orthovanadate, 10 μM Beta-Glycerophosphate, 1000 μM Ultra Pure ATP (provided in the Promega ADP-Glo™ Kinase Assay kit), and 1% DMSO (from compound).
(§3) Upon completion, 5 μL of the ADP Glo reagent was added to each well and the plate was further incubated at room temperature for 45 min. 10 μL of the Kinase Detection Reagent was subsequently added to each well. After 10 min of incubation, the plate was read and analyzed on the BioTek Synergy microplate reader using BioTek Gen5 software.

CDK2-CYCLIN E1 = CDK2-CYCLIN E1 (Homo sapiens (Human), UniProt P24941); experiment: CDK protein kinase inhibition by the ADP-Glo Assay, CDK2-CYCLIN E1; assay type: biochemical; conditions: 1000 μM ATP, read-out: CDK2-CYCLIN E, IC50
Method: as §1, §2, §3

CDK4-CYCLIN D1 = CDK4-CYCLIN D1 (Homo sapiens (Human), UniProt P11802); experiment: CDK protein kinase inhibition by the ADP-Glo Assay, CDK4-CYCLIN D1; assay type: biochemical; conditions: for IC50: ADP-Glo, 1000 μM ATP; for Selectivity CDK4 vs CDK1 / Selectivity CDK4 vs CDK2 / Selectivity CDK4 vs CDK6 / Selectivity CDK4 vs CDK9: ratio of recombinant kinase IC50s; for Selectivity CDK4 vs CDK1: CDK1 over CDK4; for Selectivity CDK4 vs CDK2: CDK2 over CDK4; for Selectivity CDK4 vs CDK6: CDK6 over CDK4; for Selectivity CDK4 vs CDK9: CDK9 over CDK4
Sequence of CDK4-CYCLIN D1 (P11802 whole entry): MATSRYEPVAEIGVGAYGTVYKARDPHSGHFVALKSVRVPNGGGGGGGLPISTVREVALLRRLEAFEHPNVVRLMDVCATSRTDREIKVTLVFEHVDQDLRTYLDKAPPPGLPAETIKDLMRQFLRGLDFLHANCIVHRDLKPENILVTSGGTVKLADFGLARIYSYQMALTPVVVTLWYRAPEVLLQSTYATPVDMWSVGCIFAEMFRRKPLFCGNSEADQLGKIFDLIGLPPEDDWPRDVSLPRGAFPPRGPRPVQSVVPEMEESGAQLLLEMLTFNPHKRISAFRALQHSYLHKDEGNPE
Sequence of CDK4-CYCLIN D1 (P24385 whole entry partner): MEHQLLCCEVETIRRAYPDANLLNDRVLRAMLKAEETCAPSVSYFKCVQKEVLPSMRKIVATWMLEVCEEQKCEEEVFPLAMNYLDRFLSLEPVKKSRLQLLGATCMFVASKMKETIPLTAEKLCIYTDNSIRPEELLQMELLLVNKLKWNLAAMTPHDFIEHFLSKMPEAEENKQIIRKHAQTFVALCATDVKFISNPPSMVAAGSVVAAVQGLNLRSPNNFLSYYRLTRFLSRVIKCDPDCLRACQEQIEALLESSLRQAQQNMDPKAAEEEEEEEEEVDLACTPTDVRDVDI
Method: as §1, §2, §3

CDK6-CYCLIN D3 = CDK6-CYCLIN D3 (Homo sapiens (Human), UniProt Q00534); experiment: CDK protein kinase inhibition by the ADP-Glo Assay, CDK6-CYCLIN D3; assay type: biochemical; conditions: 1000 μM ATP
Sequence of CDK6-CYCLIN D3 (Q00534 whole entry): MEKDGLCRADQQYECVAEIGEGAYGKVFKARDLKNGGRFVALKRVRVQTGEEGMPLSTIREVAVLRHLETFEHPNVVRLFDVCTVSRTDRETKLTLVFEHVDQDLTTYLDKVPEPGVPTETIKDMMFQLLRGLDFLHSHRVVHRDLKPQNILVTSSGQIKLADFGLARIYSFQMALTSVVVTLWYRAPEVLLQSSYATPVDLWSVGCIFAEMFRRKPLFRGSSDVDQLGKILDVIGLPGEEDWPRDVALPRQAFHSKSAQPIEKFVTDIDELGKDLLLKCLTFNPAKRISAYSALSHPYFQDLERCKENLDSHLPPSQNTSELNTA
Sequence of CDK6-CYCLIN D3 (P30281 whole entry partner): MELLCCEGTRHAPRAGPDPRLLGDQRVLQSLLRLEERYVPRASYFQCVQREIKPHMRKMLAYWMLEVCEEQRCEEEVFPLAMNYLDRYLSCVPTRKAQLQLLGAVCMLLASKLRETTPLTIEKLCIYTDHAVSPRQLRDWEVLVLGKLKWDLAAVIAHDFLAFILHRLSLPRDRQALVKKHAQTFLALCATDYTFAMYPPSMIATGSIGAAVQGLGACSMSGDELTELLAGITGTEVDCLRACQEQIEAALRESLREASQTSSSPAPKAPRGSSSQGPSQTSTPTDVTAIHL
Method: as §1, §2, §3

CDK9-CYCLIN T1 = CDK9-CYCLIN T1 (Homo sapiens (Human), UniProt P50750); experiment: CDK protein kinase inhibition by the ADP-Glo Assay, CDK9-CYCLIN T1; assay type: biochemical; conditions: 1000 μM ATP
Sequence of CDK9-CYCLIN T1 (P50750 whole entry): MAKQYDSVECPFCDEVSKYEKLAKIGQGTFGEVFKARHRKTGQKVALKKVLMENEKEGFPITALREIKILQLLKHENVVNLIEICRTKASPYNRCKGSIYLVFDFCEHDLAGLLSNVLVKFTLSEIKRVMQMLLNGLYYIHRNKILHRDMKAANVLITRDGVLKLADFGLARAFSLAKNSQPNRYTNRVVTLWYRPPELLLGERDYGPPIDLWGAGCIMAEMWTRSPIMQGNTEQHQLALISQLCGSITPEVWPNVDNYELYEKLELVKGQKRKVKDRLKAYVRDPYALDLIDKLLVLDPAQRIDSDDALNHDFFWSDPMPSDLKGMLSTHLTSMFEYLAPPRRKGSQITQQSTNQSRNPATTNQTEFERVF
Sequence of CDK9-CYCLIN T1 (O60563 whole entry partner): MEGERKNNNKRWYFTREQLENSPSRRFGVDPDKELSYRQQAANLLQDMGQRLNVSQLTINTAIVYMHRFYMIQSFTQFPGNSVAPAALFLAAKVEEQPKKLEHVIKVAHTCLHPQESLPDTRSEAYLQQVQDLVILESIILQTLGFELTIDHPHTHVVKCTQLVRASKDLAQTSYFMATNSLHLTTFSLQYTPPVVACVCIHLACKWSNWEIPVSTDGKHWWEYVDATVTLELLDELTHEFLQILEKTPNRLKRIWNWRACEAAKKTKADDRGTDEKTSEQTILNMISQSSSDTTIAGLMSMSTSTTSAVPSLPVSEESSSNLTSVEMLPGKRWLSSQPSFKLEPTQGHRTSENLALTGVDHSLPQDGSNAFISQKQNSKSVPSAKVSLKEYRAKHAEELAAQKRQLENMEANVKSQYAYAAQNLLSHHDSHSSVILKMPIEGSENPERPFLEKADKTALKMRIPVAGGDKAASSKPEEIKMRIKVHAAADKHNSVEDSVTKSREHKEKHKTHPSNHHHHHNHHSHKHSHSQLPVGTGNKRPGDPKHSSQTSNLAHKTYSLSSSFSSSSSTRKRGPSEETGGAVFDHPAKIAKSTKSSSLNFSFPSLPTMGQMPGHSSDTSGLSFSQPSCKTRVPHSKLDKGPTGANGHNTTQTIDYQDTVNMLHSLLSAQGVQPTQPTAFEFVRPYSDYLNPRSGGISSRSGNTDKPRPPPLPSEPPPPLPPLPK
Method: as §1, §2, §3

[1] = test system: Phospho-Rb (Ser807/811) in SW1573-CDK6 KO cells; experiment: Phospho-Rb expression inhibition in SW1573-CDK6 KO cells quantified by in cell Western; assay type: cell-based; conditions: Homo sapiens, 24 hours, read-out: SW1573 CDK6 KO pRb IC50
How it was run: (§4)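 CRISPR CDK4- or CDK6-knockout SW1573 clones were seeded at 20,000 cells/well overnight, then exposed to compound (0.1% DMSO from 1000× stocks) for 24 h at 37° C in 10% FBS medium. Fixed, methanol-permeabilized cells were co-stained for phospho-Rb Ser807/811 and total Rb, with near-infrared in-cell Western read-out.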

[2] = test system: Phospho-Rb (Ser807/811) in SW1573-CDK4 KO cells; experiment: Phospho-Rb expression inhibition in SW1573-CDK4 KO cells quantified by in cell Western; assay type: cell-based; conditions: Homo sapiens, 24 hours, read-out: SW1573 CDK4 KO pRb IC50
How it was run: as §4

in vitro = conditions: both, human, hepatocytes
Method: (§5) Human hepatocyte stability assay was performed at Pharmaron. Human hepatocytes from mixed genders were purchased from BioIVT (Product #X008001). Compounds and positive control were incubated with human hepatocytes. Verapmil was used as a positive control. […] An aliquot of 100 μL of the supernatant was diluted by 100 μL ultra-pure water, and the mixture was used for LC/MS/MS analysis. The percent of parent remaining, intrinsic clearance (CLint) and tr2 were calculated.

[3] = Human hepatocyte stability assay; conditions: human hepatocytes, 1 μM, 120 min incubation
Method: as §5

Sequence of CDK1-CYCLIN B (P06493 whole entry): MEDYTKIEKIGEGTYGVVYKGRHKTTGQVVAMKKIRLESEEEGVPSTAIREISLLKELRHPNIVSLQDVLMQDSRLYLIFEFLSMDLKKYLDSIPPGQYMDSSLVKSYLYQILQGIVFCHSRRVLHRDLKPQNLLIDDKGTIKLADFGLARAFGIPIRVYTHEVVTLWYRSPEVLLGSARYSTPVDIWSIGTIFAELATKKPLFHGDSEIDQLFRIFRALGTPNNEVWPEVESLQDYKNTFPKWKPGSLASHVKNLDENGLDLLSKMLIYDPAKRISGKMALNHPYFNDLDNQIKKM
Sequence of CDK1-CYCLIN B (P14635 whole entry partner): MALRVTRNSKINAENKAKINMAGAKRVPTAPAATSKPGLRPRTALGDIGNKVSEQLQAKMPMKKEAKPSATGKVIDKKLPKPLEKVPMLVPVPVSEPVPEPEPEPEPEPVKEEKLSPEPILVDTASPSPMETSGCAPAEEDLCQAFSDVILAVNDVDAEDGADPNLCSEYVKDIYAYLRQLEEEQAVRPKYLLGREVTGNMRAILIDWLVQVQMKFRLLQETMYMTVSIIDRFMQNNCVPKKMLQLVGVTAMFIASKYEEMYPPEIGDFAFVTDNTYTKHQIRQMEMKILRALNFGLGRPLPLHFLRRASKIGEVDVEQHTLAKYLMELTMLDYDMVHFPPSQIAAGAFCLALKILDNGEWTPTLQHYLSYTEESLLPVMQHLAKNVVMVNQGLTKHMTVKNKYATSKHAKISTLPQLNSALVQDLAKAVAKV

CC(C)n1c(C(C)(C)O)nc2c(F)cc(-c3nc(N[C@@H]4C[C@H]5CO[C@H](O5)[C@H]4O)ncc3Cl)cc21 [Compound 1, (1S,3R,4S,5R)-3-((5-chloro-4-(4-fluoro-2-(2-hydroxypropan-2-yl)-1-isopropyl-1H-benzo[d]imidazol-6-yl)pyrimidin-2-yl)amino)-6,8-dioxabicyclo[3.2.1]octan-4-ol]
IC50 (CDK1-CYCLIN B): 26200 nM
IC50 (CDK2-CYCLIN E1): > 30000 nM
IC50 (CDK4-CYCLIN D1): 3.15 nM
Selectivity CDK4 vs CDK1 (CDK4-CYCLIN D1): 8,317
Selectivity CDK4 vs CDK2 (CDK4-CYCLIN D1): >9,524
Selectivity CDK4 vs CDK6 (CDK4-CYCLIN D1): 20
Selectivity CDK4 vs CDK9 (CDK4-CYCLIN D1): 1,549
Selectivity for CDK4 over CDK1, CDK2, CDK6 and CDK9 compared with the reference compound (CDK4-CYCLIN D1; versus PF-07220060): much better selectivity
IC50 (CDK6-CYCLIN D3): 63.8 nM
IC50 (CDK9-CYCLIN T1): 4880 nM
IC50 [1]: ≤ 40 nM
IC50 [2]: > 1000 nM
Hepatic Extraction Ratio (ER) (both, human, 1 μM): 0.23
Predicted Hepatic CLH (both, human, 1 μM): 4.9 mL/min/kg
In vitro CLint (μL/min/10^6 cell) (human, hepatocytes): 2.5 μL/min/10^6 cell
CLint scaled at 1 μM (in vitro): 6.4 mL/min/kg
half-life at 1 μM (in vitro): 9.26 h

Cc1c(-c2nc(N[C@@H]3C[C@H]4CO[C@H](O4)[C@H]3O)ncc2F)sc2c(Cl)c(C(C)(C)O)cnc12 [Compound 276, (1S,3R,4S,5R)-3-((4-(7-chloro-6-(2-hydroxypropan-2-yl)-3-methylthieno[3,2-b]pyridin-2-yl)-5-fluoropyrimidin-2-yl)amino)-6,8-dioxabicyclo[3.2.1]octan-4-ol]
IC50 [1]: ≤ 40 nM
IC50 [2]: 150 to 1000 nM

Cc1c(-c2nc(N[C@@H]3C[C@H]4CO[C@H](O4)[C@H]3O)ncc2Cl)sc2c(C)c(C(C)(C)O)cnc12 [Compound 277, (1S,3R,4S,5R)-3-((5-chloro-4-(6-(2-hydroxypropan-2-yl)-3,7-dimethylthieno[3,2-b]pyridin-2-yl)pyrimidin-2-yl)amino)-6,8-dioxabicyclo[3.2.1]octan-4-ol]
IC50 [1]: ≤ 40 nM
IC50 [2]: > 1000 nM

Cc1c(CN2CC[C@H](F)C2)n(C(C)C)c2cc(-c3nc(N[C@@H]4C[C@H]5CO[C@H](O5)[C@H]4O)ncc3F)ccc2c1=O [Compound 293, 7-(5-fluoro-2-(((1S,3R,4S,5R)-4-hydroxy-6,8-dioxabicyclo[3.2.1]octan-3-yl)amino)pyrimidin-4-yl)-2-(((S)-3-fluoropyrrolidin-1-yl)methyl)-1-isopropyl-3-methylquinolin-4(1H)-one]
IC50 [1]: ≤ 40 nM
IC50 [2]: 150 to 1000 nM

CC(C)n1c(N2C(=O)OC[C@@H]2C)nc2c(F)cc(-c3nc(N[C@@H]4C[C@H]5CO[C@H](O5)[C@H]4O)ncc3Cl)cc21 [Compound 298, (S)-3-(6-(5-chloro-2-(((1S,3R,4S,5R)-4-hydroxy-6,8-dioxabicyclo[3.2.1]octan-3-yl)amino)pyrimidin-4-yl)-4-fluoro-1-isopropyl-1H-benzo[d]imidazol-2-yl)-4-methyloxazolidin-2-one]
IC50 [1]: 40 to 150 nM
IC50 [2]: > 1000 nM

CC(C)n1c(C(C)(C)O)nc2c(F)cc(-c3nc(N[C@@H]4CCOC[C@H]4O)ncc3Cl)cc21 [Reference Compound, PF-07220060, reference compound]
IC50 (CDK1-CYCLIN B): 8590 nM
IC50 (CDK2-CYCLIN E1): > 30000 nM
IC50 (CDK4-CYCLIN D1): 4.37 nM
Selectivity CDK4 vs CDK1 (CDK4-CYCLIN D1): 1,966
Selectivity CDK4 vs CDK2 (CDK4-CYCLIN D1): >6,865
Selectivity CDK4 vs CDK6 (CDK4-CYCLIN D1): 18
Selectivity CDK4 vs CDK9 (CDK4-CYCLIN D1): 430
IC50 (CDK6-CYCLIN D3): 76.5 nM
IC50 (CDK9-CYCLIN T1): 1880 nM
Scaled-up CLint (hepatocytes): 28.6 mL/min/kg
In vitro CLint (μL/min/10^6 cell) (human, hepatocytes): 11.3 μL/min/10^6 cell
t1/2 [3]: 2.057 h
